This is an account of results in PMC4674756, “NMR structure and function of Helicoverpa armigera sterol carrier protein-2, an important insecticidal target from the cotton bollworm” (Scientific Reports, 2015).

Assay [1] relates to Helicoverpa armigera larvae. In words: Cholesterol levels in fat body of larvae treated with SCP-2 inhibitors. In kind it is in vivo. The settings on record: fat body dissected at 5th instar. The procedure: To investigate the effects of SCPI suppression on cholesterol absorption and accumulation in the fat body, in vivo experiments were conducted. The inhibitory effects of SCPIs on cholesterol uptake were tested at the early stages of 3rd and 4th instar larvae. H. armigera larvae were treated with SCPI-1 and mangostin. Because the fat body of insects is the main tissues of cholesterol storage, the fat bodies of the treated larvae were dissected at 5th instar and the concentration of cholesterol in the fat body was measured. […] Similarly, for the mangostin treatment group, there was a 2-fold decrease in the cholesterol levels (p = 0.05) (Fig. 9B 3rd) when the treatment started at 3rd instar stadium. […]
Figure 9 The levels of cholesterol in Helicoverpa armigera larvae treated by SCP-2 inhibitors. The cholesterol levels in the fat body of Helicoverpa armigera larvae which were treated with two inhibitors (AeSCPI-1 and mangostin) were determined. […] The concentration of cholesterol and total protein from each sample were measured. […] Larvae were treated and samples were measured in the same way as AeSCPI-1. […]
The H.armigera larvae were reared according to previous methods. […] Because the fat body of insects is the main tissue of cholesterol storage, the fat bodies of the treated larvae were dissected at 5th instar and the concentration of cholesterol in the fat body was measured. […]

A further assay deals with HaSCP-2 (Helicoverpa armigera, UniProt K7NSY9). The experiment in a line: biochemical.
Assay [2] concerns the target truncated HaSCP-2 (trHaSCP-2) (Helicoverpa armigera, UniProt K7NSY9). The experiment in a line: NBD-cholesterol binding assay, truncated (wild type) HaSCP-2. To be noted: NBD-cholesterol 0.25 μM, protein 25 nM to 15 μM, one site binding non-linear regression, R^2 = 0.99. The procedure:
(§1) NBD-cholesterol binding assays were performed to investigate the biological function of HaSCP-2 in this study. Both the recombinant full length and trHaSCP-2 were examined for NBD-cholesterol binding (Kd). Glutathione S-transferase (GST) was used as a negative control as before. The final concentration of NBD-cholesterol was kept constant at 0.25 μM and the concentration of full length or truncated HaSCP-2 was tested in a range from 25 nM to 15 μM. The increasing concentration of full length or truncated HaSCP-2 led to the increase in the fluorescence emission value of NBD-cholesterol. […] The binding curves were analyzed by using the one site binding non-linear regression model adopted in the similar studies. […] It is quite likely that the N-terminal and C-terminal residues that were deleted may not be necessary for the ligand binding activity of HaSCP-2, as shown that no significant differences in binding affinity between the truncated HaSCP-2 and full length HaSCP-2.
(§2) HaSCP-2 binding activity to cholesterol was determined by using NBD-cholesterol binding assays. […] Then, the samples were applied to measure the fluorescence signals using a fluorescence microplate reader (GeminiXPS, Molecular Devices). Fluorescence was excited at 485 nm and the emission was measured at 530 nm. […]

The next assay has as its target full length HaSCP-2 (Helicoverpa armigera, UniProt K7NSY9). In words: NBD-cholesterol binding assay, full length (deduced) HaSCP-2. The settings on record: NBD-cholesterol 0.25 μM, protein 25 nM to 15 μM, one site binding non-linear regression, R^2 = 0.99. As to the method:
as §1, §2

The target in a further assay is HaSCP-2 F89A (Helicoverpa armigera, UniProt K7NSY9, F479A). In kind it is binding. To be noted: mutant F89A; P vs WT 0.038. From the text: (§3) In order to further confirm the key residues of HaSCP-2 that are involved in the ligand binding, based on the HaSCP-2 structure and docking simulation results we selected several predicted amino acid residues as shown in Table 3 (cholesterol and β-sitosterol) to perform single site mutation experiments to investigate the mechanism of ligand binding in HaSCP-2.
(§4) Single site amino acid mutations in the pGEX-KG/trHaSCP-2 were introduced using the QuikChange II Site-Directed Mutagenesis kit (Stratagene, La Jolla, CA). The Y51, F53, F89, I91, F110, I117 and Q131 sites of HaSCP-2 were selected to perform mutation.
(§5) HaSCP-2 binding activity to cholesterol was determined by using NBD-cholesterol binding assays. In truncation experiments, deduced HaSCP-2 and truncated HaSCP-2 were used for NBD-cholesterol binding assay; while as in mutation experiment, truncated HaSCP-2 (defined as wild type HaSCP-2) and mutated HaSCP-2 were assayed. HaSCP-2 was diluted in 10 mM KHPO4 buffer (pH 7.4) to a serial of varied concentrations […], respectively.

For another assay, the target named is HaSCP-2 F110W (Helicoverpa armigera, UniProt K7NSY9, F500W). In kind it is binding. The settings on record: mutant F110W; P vs WT 0.019.
Text: as §3, §4, §5

In a further assay the target is HaSCP-2 F53A (Helicoverpa armigera, UniProt K7NSY9, F443A). In kind it is binding. The settings on record: mutant F53A; P vs WT 0.031.
Text: as §3, §4, §5

The next assay has as its target HaSCP-2 Q131A (Helicoverpa armigera, UniProt K7NSY9, Q521A). In kind it is binding. To be noted: mutant Q131A; P vs WT 0.034.
Text: as §3, §4, §5

A further assay has as its target HaSCP-2 F53W (Helicoverpa armigera, UniProt K7NSY9, F443W). The format is binding. The settings on record: mutant F53W; P vs WT 0.026.
Text: as §3, §4, §5

In the next assay the target is HaSCP-2 Y51A (Helicoverpa armigera, UniProt K7NSY9, Y441A). The format is binding. To be noted: mutant Y51A; P vs WT 0.023.
Text: as §3, §4, §5

The target of another assay is HaSCP-2 I117M (Helicoverpa armigera, UniProt K7NSY9, I507M). In kind it is binding. The settings on record: mutant I117M; P vs WT 0.043.
Text: as §3, §4, §5

SMILES strings stand for the structures.

Sequence of HaSCP-2 (K7NSY9 entry or part of it): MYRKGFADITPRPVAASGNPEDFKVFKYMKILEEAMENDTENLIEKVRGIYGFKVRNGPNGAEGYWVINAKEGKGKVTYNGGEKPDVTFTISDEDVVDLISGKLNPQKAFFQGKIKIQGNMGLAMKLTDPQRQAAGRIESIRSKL
Sequence of HaSCP-2 F53W (K7NSY9 entry or part of it F443W): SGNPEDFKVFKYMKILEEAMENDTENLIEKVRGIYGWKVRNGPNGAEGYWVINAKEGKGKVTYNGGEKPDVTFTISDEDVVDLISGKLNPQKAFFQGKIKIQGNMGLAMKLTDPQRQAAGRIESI
Sequence of HaSCP-2 F53A (K7NSY9 entry or part of it F443A): as the sequence (K7NSY9 entry or part of it F443W) above, with W37A counted along it
Sequence of HaSCP-2 I117M (K7NSY9 entry or part of it I507M): as the sequence (K7NSY9 entry or part of it F443W) above, with W37F, I101M counted along it
Sequence of HaSCP-2 Q131A (K7NSY9 entry or part of it Q521A): as the sequence (K7NSY9 entry or part of it F443W) above, with W37F, Q115A counted along it
Sequence of full length HaSCP-2 (K7NSY9 entry or part of it): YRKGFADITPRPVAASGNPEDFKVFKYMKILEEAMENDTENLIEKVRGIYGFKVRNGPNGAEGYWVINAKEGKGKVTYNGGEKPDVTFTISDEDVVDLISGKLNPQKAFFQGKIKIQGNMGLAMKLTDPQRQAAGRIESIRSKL
Sequence of HaSCP-2 F89A (K7NSY9 entry or part of it F479A): as the sequence (K7NSY9 entry or part of it F443W) above, with W37F, F73A counted along it
Sequence of HaSCP-2 F110W (K7NSY9 entry or part of it F500W): as the sequence (K7NSY9 entry or part of it F443W) above, with W37F, F94W counted along it
Sequence of HaSCP-2 Y51A (K7NSY9 entry or part of it Y441A): as the sequence (K7NSY9 entry or part of it F443W) above, with Y35A, W37F counted along it
Sequence of truncated HaSCP-2 (trHaSCP-2) (K7NSY9 entry or part of it): as the sequence (K7NSY9 entry or part of it F443W) above, with W37F counted along it

The EC50 is the concentration giving half of the maximal effect. Turning to `COc1c(O)cc2oc3cc(O)c(CC=C(C)C)c(O)c3c(=O)c2c1CC=C(C)C` [α-mangostin, 1,3,6-trihydroxy-7-methoxy-2,8-bis(3-methylbut-2-enyl)-9H-xanthen-9-one], in assay [1] (treatment started at 3rd instar stadium via diet, p = 0.05), the “decrease in the cholesterol levels in the fat body” value came out at 2 fold. This compound also had an EC50 on HaSCP-2 of 730 nM.

With `Br.CC(=O)Nc1ccc(Nc2nc(-c3ccc(Cl)c(Cl)c3)cs2)cc1` [AeSCPI-1, N-(4-{[4-(3,4-dichlorophenyl)-1,3-thiazol-2-yl]amino}phenyl) acetamide hydrobromide], the “cholesterol levels in the fat body vs control group” value in [1] (larvae treated at 3rd instar stage via diet, p = 0.023) is “significantly lower”. On HaSCP-2, this compound yielded an EC50 of 760 nM.

One may read the Kd as a measure of binding affinity in units of concentration. High values mean a looser complex, low ones a tighter complex. Regarding `C[C@H](CNc1ccc([N+](=O)[O-])c2nonc12)[C@H]1CC[C@H]2[C@@H]3CC=C4C[C@@H](O)CC[C@]4(C)[C@H]3CC[C@]12C` [NBD-cholesterol], the Kd in assay [2] was determined as 2450 nM; at full length HaSCP-2, 2800 nM; at HaSCP-2 F89A, 3.27 µM; at HaSCP-2 F110W, 3.24 µM; at HaSCP-2 F53A it was 3.07 µM; at HaSCP-2 Q131A, 3.77 µM. Besides, the Kd at HaSCP-2 F53W is 3.41 µM; on HaSCP-2 Y51A, 2650 nM; at HaSCP-2 I117M, 1800 nM.
